Assays:
[1] = system: HCT116 colon cancer cells; conditions: HCT116 xenograft, I.p.
Excerpt: Female athymic nude (nu/nu) mice were inoculated with HCT116 colon cancer cells, and the tumors were allowed to grow to a volume of about 150 mm^3.

A2780 = assay: Cell growth in liquid culture (alamarBlue); conditions: Homo sapiens, A2780, 72 h, read-out: IC50 (uM) Liquid culture
PC3 [2] = assay: Cell growth in liquid culture (alamarBlue); conditions: Homo sapiens, PC-3, 72 h, read-out: IC50 (uM) Liquid culture
MCF7 [3] = assay: Cell growth in soft agar culture (alamarBlue); conditions: Homo sapiens, MCF7, 168 h, read-out: IC50 (uM) Soft agar
HS578 = assay: Cell growth in soft agar culture (alamarBlue); conditions: Hs578, 168 h, read-out: IC50 (uM) Soft agar
OVCAR-1 = assay: Cell growth in liquid culture (alamarBlue); conditions: OVCAR1, 72 h, read-out: IC50 (uM) Liquid culture
UACC62 [4] = assay: Cell growth in liquid culture (alamarBlue); conditions: Homo sapiens, UACC-62, 72 h, read-out: IC50 (uM) Liquid culture
A549 [5] = assay: Cell growth in liquid culture (alamarBlue); conditions: Homo sapiens, A549, 72 h, read-out: IC50 (uM) Liquid culture
DLD1 = assay: Cell growth in liquid culture (alamarBlue); conditions: Homo sapiens, DLD-1, 72 h, read-out: IC50 (uM) Liquid culture
NCI-H460 [6] = assay: Cell growth in soft agar culture (alamarBlue); conditions: Homo sapiens, NCI-H460, 168 h, read-out: IC50 (uM) Soft agar
SKBR3 = assay: Cell growth in soft agar culture (alamarBlue); conditions: Homo sapiens, SK-BR-3, 168 h, read-out: IC50 (uM) Soft agar
SK-OV-3 = assay: Cell growth in soft agar culture (alamarBlue); conditions: Homo sapiens, SK-OV-3, 168 h, read-out: IC50 (uM) Soft agar
HCT116-P53(−) = assay: Cell growth in liquid culture (alamarBlue); conditions: 72 h, read-out: IC50 (uM) Liquid culture
HCT116 [7] = assay: Cell growth in soft agar culture (alamarBlue); conditions: Homo sapiens, HCT-116, 168 h, read-out: IC50 (uM) Soft agar
UACC62 [8] = assay: Cell growth in soft agar culture (alamarBlue); conditions: Homo sapiens, UACC-62, 168 h, read-out: IC50 (uM) Soft agar
NCI-H460 [9] = assay: Cell growth in liquid culture (alamarBlue); conditions: Homo sapiens, NCI-H460, 72 h, read-out: IC50 (uM) Liquid culture
PC3 [10] = assay: Cell growth in soft agar culture (alamarBlue); conditions: Homo sapiens, PC-3, 168 h, read-out: IC50 (uM) Soft agar
W138 = assay: Cell growth in liquid culture (alamarBlue); conditions: W138, 72 h, read-out: IC50 (uM) Liquid culture
OVCAR-8 = assay: Cell growth in soft agar culture (alamarBlue); conditions: Homo sapiens, OVCAR-8, 168 h, read-out: IC50 (uM) Soft agar
A549 [11] = assay: Cell growth in soft agar culture (alamarBlue); conditions: Homo sapiens, A549, 168 h, read-out: IC50 (uM) Soft agar
MCF7 [12] = assay: Cell growth in liquid culture (alamarBlue); conditions: Homo sapiens, MCF7, 72 h, read-out: IC50 (uM) Liquid culture
OVCAR-4 = assay: Cell growth in liquid culture (alamarBlue); conditions: Homo sapiens, OVCAR-4, 72 h, read-out: IC50 (uM) Liquid culture
HCT116 [13] = assay: Cell growth in liquid culture (alamarBlue); conditions: Homo sapiens, HCT-116, 72 h, read-out: IC50 (uM) Liquid culture
MDA_MB-435 = assay: Cell growth in soft agar culture (alamarBlue); conditions: Homo sapiens, MDA-MB-435, 168 h, read-out: IC50 (uM) Soft agar
Pc3M/N = assay: Cell growth in soft agar culture (alamarBlue); conditions: Homo sapiens, PC-3M, 168 h, read-out: IC50 (uM) Soft agar
PA-1 = assay: Cell growth in liquid culture (alamarBlue); conditions: Homo sapiens, PA-1, 72 h, read-out: IC50 (uM) Liquid culture
MDA-231 = assay: Cell growth in soft agar culture (alamarBlue); conditions: Homo sapiens, MDA-MB-231, 168 h, read-out: IC50 (uM) Soft agar
ASPC-1 = assay: Cell growth in liquid culture (alamarBlue); conditions: Homo sapiens, ASPC1, 72 h, read-out: IC50 (uM) Liquid culture

SMILES: Cc1cc(/C=C/c2ccc3cc(N(C)C)ccc3[n+]2C)c(C)n1-c1ccccc1 [Example 1, Pyrvinium Phosphate]
- Result: Tumor reduction [1]: Tumor reduction (25%)
- IC50 (A2780): 0.03 to 0.1 µM
- IC50 (PC3 [2]): 0.1 to 0.3 µM
- IC50 (MCF7 [3]): < 0.03 µM
- IC50 (HS578): 0.03 to 0.1 µM
- IC50 (OVCAR-1): 0.03 to 0.1 µM
- IC50 (UACC62 [4]): 0.1 to 0.3 µM
- IC50 (A549 [5]): 0.1 to 0.3 µM
- IC50 (DLD1): 0.3 to 1 µM
- IC50 (NCI-H460 [6]): 0.03 to 0.1 µM
- IC50 (SKBR3): ~1 µM
- IC50 (SK-OV-3): 0.03 to 0.1 µM
- IC50 (HCT116-P53(−)): > 1 µM
- IC50 (HCT116 [7]): 0.1 to 0.3 µM
- IC50 (UACC62 [8]): 0.03 to 0.1 µM
- IC50 (NCI-H460 [9]): 0.1 to 0.33 µM
- IC50 (PC3 [10]): 0.1 to 0.3 µM
- IC50 (W138): 0.1 to 0.3 µM
- IC50 (OVCAR-8): 0.03 to 0.1 µM
- IC50 (A549 [11]): 0.033 to 0.1 µM
- IC50 (MCF7 [12]): 0.03 to 0.1 µM
- IC50 (OVCAR-4): 0.1 to 0.3 µM
- IC50 (HCT116 [13]): > 1 µM
- IC50 (MDA_MB-435): 0.03 to 0.1 µM
- IC50 (Pc3M/N): ~0.3 µM
- IC50 (PA-1): 0.03 to 0.1 µM
- IC50 (MDA-231): < 0.03 µM
- IC50 (ASPC-1): 0.3 to 1 µM
